Laboratory results: patent US20240100178A1, “EGFR TARGETING PEPTIDE CONJUGATE” (Chapman University, priority 2022, published 2024)
Where a SMILES comes first, the peptide text is derived from it. The star is where a group is joined. X1 = COc1cccc2c1C(=O)c1c(O)c3c(c(O)c1C2=O)C[C@@](O)(C(=O)CO)C[C@@H]3O[C@H]1C[C@H](NC(=O)C2CCC(CN3C(=O)CC(*)C3=O)CC2)[C@H](O)[C@H](C)O1

How the values were obtained:
[1] = tested on: TNBC cells (MDA-MB-468, 231, and 436); test: SPOT peptide array library screen for binding to TNBC cells versus normal breast cells; type: cell-based; details: peptide array incubated with TNBC cells (MDA-MB-468, 231, 436) or normal breast cells (MCF-10A, 12A); relative to lead GE11
Procedure: A library of 30 peptide sequences (in duplicates, total 60 peptides) was synthesized in an array format on functionalized cellulose membrane using SPOT synthesis. The peptide library was screened for identifying EGFR binding peptide in TNBC cells by incubating the library with TNBC cells (MDA-MB-468, 231, and 436) or normal breast (MCF-10A and 12A) cells.

[2] = Stability of peptide GE11 in human serum at 37° C. (RP-HPLC); type: in vitro ADME
Procedure: Peptide was incubated with human serum at 37° C., and aliquots were removed at different time intervals for HPLC analysis.
Peptides show low proteolytic stability when administered systemically and must be stabilized for clinical application. […] The three N-terminal amino acids (1Y, 2H, 3W) were cleaved sequentially by proteolysis, giving three fragments (A, B, and C, Table 2)) that appear in the HPLC chromatograms. […] Therefore, blocking the N-terminus of the peptide with a chemotherapeutic drug yields a stable conjugate.

[3] = tested on: MDA-MB-468; test: Cytotoxicity MTT/MTS assay, MDA-MB-468; type: cell-based; details: MDA-MB-468 (TNBC) cells
Description: (§1) FIG. 4A-C depicts the cytotoxicity of PDoxC, obtained by […], for three cell lines (MDA-MB-231 [FIG. 4A], MDA-MB-468 [FIG. 4B], and MCF-10A [FIG. 4C]). Cell viability is plotted against drug concentration (PDoxC or Dox) to obtain IC50 values. Each experimental point was done in duplicates or triplicates and the experiment was repeated once.
(§2) Next, the cytotoxicity of the peptide 31 PDoxC was compared to the DOX (free drug) using MTS assay (FIG. 4A-C). Three cell lines were used, two TNBC cell lines (MDA-MB-231 and MDA-MB-468) and one non-cancerous mammary epithelial MCF-10A cell line. […] This peptide 31 PDoxC is very promising as this level of selectivity has never been observed with previously reported peptide-drug conjugates.

[4] = tested on: MCF-10A; test: Cytotoxicity MTT/MTS assay, MCF-10A; type: cell-based; details: MCF-10A non-cancerous mammary epithelial cells; highest tested concentration 25 μM
Description: as §1, §2

[5] = Stability of PDoxC in human serum at 37° C. (RP-HPLC); type: in vitro ADME; details: HPLC peak AUC
Procedure: (§3) FIG. 3 depicts the stability of the PDoxC in the presence of human or mouse serum at 37° C. The PDoxC was incubated with human or mouse serum and aliquots were removed at different time intervals for HPLC analysis. The AUC for PDoxC peak was used to calculate the percent intact at different time points.
(§4) The stability of the peptide 31 PDoxC was evaluated by incubating it with human or mouse serum at 37° C. (FIG. 3). Aliquots were removed at regular intervals to analyze the PDoxC using RP-HPLC.

[6] = Stability of PDoxC in mouse serum at 37° C. (RP-HPLC); type: in vitro ADME; details: HPLC peak AUC
Procedure: as §3, §4

[7] = tested on: MDA-MB-231; test: Cytotoxicity MTT/MTS assay, MDA-MB-231; type: cell-based; details: MDA-MB-231 (TNBC) cells
Description: as §1, §2

[8] = tested on: EGFR expressing TNBC cells (MDA-MB-231 and MDA-MB-468); test: Peptide uptake by EGFR expressing TNBC cells; type: cell-based
Description: (§5) The specific binding and uptake of peptide 22 (FITC labeled peptide) by EGFR in TNBC cells was confirmed by competition assay using flow cytometry.

[9] = tested on: noncancerous mammary epithelial cells (MCF-10A and MCF12A); test: Peptide uptake by noncancerous mammary epithelial cells; type: cell-based
[10] = tested on: EGFR in MDA-MB-231 cells; test: EGF competition assay of FITC labeled peptide uptake by flow cytometry; type: cell-based
Description: as §5

[11] = target: T1, epidermal growth factor receptor (EGFR) on TNBC cells (UniProt P00533 25-1210, limits assumed); test: SPOT peptide array on cellulose membrane incubated with TNBC cells (MDA-MB-468, 231, 436) or normal breast cells
T1 construct: whole, on cells; also called ErbB1

With YHWYGYTPQDVI [Peptide 23] the “specific affinity for TNBC cells” value [1] was “higher specific affinity”.

In the case of `CC[C@H](C)[C@H](NC(=O)[C@@H](NC(=O)[C@H](CC(N)=O)NC(=O)[C@H](CCC(N)=O)NC(=O)[C@@H]1CCCN1C(=O)[C@@H](NC(=O)[C@H](Cc1ccc(O)cc1)NC(=O)CNC(=O)[C@H](Cc1ccc(O)cc1)NC(=O)[C@H](Cc1c[nH]c2ccccc12)NC(=O)[C@H](Cc1c[nH]cn1)NC(=O)[C@@H](N)Cc1ccc(O)cc1)[C@@H](C)O)C(C)C)C(=O)O` [GE11], the “% Intact GE11” value ([2]; 0 h) is reported as 100%, the remaining at 1 h ([2]; 1 h) is reported as 49% and the remaining at 3 h ([2]; 3 h) is reported as 18%. The “% Intact GE11” value ([2]; 7 h) was 2% and the remaining at 7 h ([2]; 7 h) was 2%.

With YHWYGYTPQKVI [Peptide 27] the “specific affinity for TNBC cells” value [1] was “higher specific affinity”.

With `COc1cccc2c1C(=O)c1c(O)c3c(c(O)c1C2=O)C[C@@](O)(C(=O)CO)C[C@@H]3O[C@H]1C[C@H](N)[C@H](O)[C@H](C)O1` [Free Dox, doxorubicin, reference compound] the IC50 [3] was 570 nM and the IC50 [4] was 1410 nM.

In the case of YHWYGYTPKNVI [Peptide 26], the “specific affinity for TNBC cells” value [1] is reported as “higher specific affinity”.

Molecule `CC[C@H](C)[C@H](NC(=O)[C@@H](NC(=O)[C@H](CCCNC(=N)N)NC(=O)[C@H](CCC(=O)O)NC(=O)[C@@H]1CCCN1C(=O)[C@@H](NC(=O)[C@H](Cc1ccc(O)cc1)NC(=O)CNC(=O)[C@H](Cc1ccc(O)cc1)NC(=O)[C@H](Cc1c[nH]c2ccccc12)NC(=O)[C@H](Cc1c[nH]cn1)NC(=O)[C@H](Cc1ccc(O)cc1)NC(=O)[C@@H](N)CSC1CC(=O)N(CC2CCC(C(=O)N[C@H]3C[C@H](O[C@H]4C[C@](O)(C(=O)CO)Cc5c(O)c6c(c(O)c54)C(=O)c4c(OC)cccc4C6=O)O[C@@H](C)[C@H]3O)CC2)C1=O)[C@@H](C)O)C(C)C)C(=O)O` (some centres unmarked) [PDoxC] (H-C(X1)YHWYGYTPERVI-OH; N-terminus and C-terminus assumed) has a half-life [5] of 12.7 h, a half-life [6] of 4 h and an IC50 [7] of 2370 ± 550 nM. For the same molecule, the IC50 [3] was 2750 ± 570 nM and the “IC50 ± SD” value [4] was “no toxicity”.

With “YHWYGYTPENVI [Peptide 22, used FITC labeled in uptake assays]” the “specific affinity for TNBC cells” value [1] was “higher specific affinity”, the “uptake by EGFR expressing TNBC cells compared to the lead GE11” value [8] was 47-123 fold and the “uptake by noncancerous mammary epithelial cells” value [9] was “minimal uptake”. The “FITC-positive MDA-MB-231 cells” value ([10]; FITC labeled peptide alone, without excess EGF) was 99% and the “FITC-positive MDA-MB-231 cells” value ([10]; FITC labeled peptide in the presence of excess EGF protein) was 2%.

B1: peptide 23 (peptide)
peptide: YHWYGYTPQDVI
modifications: made on a cellulose membrane by SPOT synthesis in the library screen
B1: binds [11].

B2: peptide 27 (peptide)
peptide: YHWYGYTPQKVI
modifications: made on a cellulose membrane by SPOT synthesis in the library screen
notes: 12-mer derived from GE11 (N10K)
B2: binds [11].

B3: peptide 26 (peptide)
peptide: YHWYGYTPKNVI
modifications: made on a cellulose membrane by SPOT synthesis in the library screen
B3: binds [11].
